{
  "source": "patent US20170136085A1",
  "about": "“TARGETED THERAPEUTICS” (SYNTA PHARMACEUTICALS CORP., priority 2014, published 2017)",
  "tested_on": "HER2",
  "assay": "Degradation of HER2 in cells, Method 1 (SDS-PAGE / immunoblot)",
  "assay_type": "cell-based",
  "conditions": "BT-474 cells, 0.5 μM, overnight in DMEM medium",
  "method": "BT-474 cells are treated with 0.5 μM, 2 μM, or 5 μM of 17-AAG (a positive control) or 0.5 μM, 2 μM, or 5 μM of an Hsp90-targeting moiety or conjugate of the invention overnight in DMEM medium. After treatment, each cytoplasmic sample is prepared from 1×10^6 cells by incubation of cell lysis buffer (#9803, Cell Signaling Technology) on ice for 10 minutes. The resulting supernatant used as the cytosol fractions is dissolved with sample buffer for SDS-PAGE and run on a SDS-PAGE gel, blotted onto a nitrocellulose membrane by using semi-dry transfer. Non-specific binding to nitrocellulose is blocked with 5% skim milk in TBS with 0.5% Tween at room temperature for 1 hour, then probed with anti-HER2/ErB2 mAb (rabbit IgG, #2242, Cell Signaling) and anti-Tubulin (T9026, Sigma) as housekeeping control protein. HRP-conjugated goat anti-rabbit IgG (H+L) and HRP-conjugated horse anti-mouse IgG (H+L) are used as secondary Ab (#7074, #7076, Cell Signaling) and LumiGLO reagent, 20× Peroxide (#7003, Cell Signaling) is used for visualization. The Hsp90 client protein HER2 is degraded when cells are treated with Hsp90-targeting moieties or SDC-TRAPs of the invention.",
  "data": [
    {"molecule": "C=CCNC1=C2C[C@@H](C)C[C@H](OC)[C@H](O)[C@@H](C)/C=C(\\C)[C@H](OC(N)=O)[C@@H](OC)/C=C\\C=C(/C)C(=O)NC(=CC1=O)C2=O", "note": "[17-AAG]", "values": [
      {"measurement": "degradation of HER2", "result": "partial degradation"}
    ]}
  ]
}
